Paper PMC11631053, “A receptor-based assay to study the sweet and bitter tastes of sweeteners and binary sweet blends: the SWEET project” (Chemical Senses, 2024)
Where two headings read alike, the source gives them in different places.

Key:
[1] = biological target: T1, TAS2R14 (Homo sapiens, UniProt Q9NYV8); assay: Calcium mobilization assay, HEK293T-Gα16gust44 cells expressing TAS2R14; settings: maximal concentration tested: sucralose 100 mM, neotame 30 µM, Ace-K 300 mM, RebA 4 mM, RebM 4 mM, mogroside V 5 mM, erythritol 200 mM, D-allulose 500 mM, thaumatin 100 mM
T1 sequence (Q9NYV8 1-317): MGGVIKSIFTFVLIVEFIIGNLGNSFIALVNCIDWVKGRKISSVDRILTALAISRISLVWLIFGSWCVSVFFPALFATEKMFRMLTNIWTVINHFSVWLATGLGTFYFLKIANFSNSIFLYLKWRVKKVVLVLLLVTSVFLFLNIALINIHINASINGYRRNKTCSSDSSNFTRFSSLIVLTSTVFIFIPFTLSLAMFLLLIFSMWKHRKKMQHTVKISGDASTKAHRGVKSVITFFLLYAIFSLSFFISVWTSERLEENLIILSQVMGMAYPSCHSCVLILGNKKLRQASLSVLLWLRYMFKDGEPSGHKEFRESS
Procedure: (§1) Different concentration ranges were tested depending on the injected sweet compound. […] All of the concentration-receptor combinations were measured in triplicate, and each experiment was repeated at least 3 times. The Ca^2+ change was expressed as a fractional change in fluorescent light intensity: ΔF/F = (F − F0)/F0, where F was the fluorescent light intensity at each point, and F0 was the value of fluorescent light emitted prior to stimulus application. To calculate dose–response relationships, the changes in fluorescence upon stimulus application were averaged, mock-subtracted and baseline-corrected. The resulting obtained dose–response data were adjusted by using a 4-parameter logistic equation.

[2] = biological target: T2, TAS2R41 (Homo sapiens, UniProt P59536); assay: Calcium mobilization assay, HEK293T-Gα16gust44 cells expressing TAS2R41; settings: maximal concentration tested: sucralose 100 mM, neotame 30 µM, Ace-K 300 mM, RebA 4 mM, RebM 4 mM, mogroside V 5 mM, erythritol 200 mM, D-allulose 500 mM, thaumatin 100 mM
T2 sequence (P59536 1-307): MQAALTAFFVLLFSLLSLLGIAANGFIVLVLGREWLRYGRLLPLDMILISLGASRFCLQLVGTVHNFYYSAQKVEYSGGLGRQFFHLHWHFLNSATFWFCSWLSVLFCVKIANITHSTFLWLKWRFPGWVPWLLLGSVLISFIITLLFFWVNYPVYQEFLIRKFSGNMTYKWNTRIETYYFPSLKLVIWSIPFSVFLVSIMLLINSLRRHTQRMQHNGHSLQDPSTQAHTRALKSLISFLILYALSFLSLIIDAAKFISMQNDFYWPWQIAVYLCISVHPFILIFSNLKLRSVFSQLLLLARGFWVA
Procedure: Different concentration ranges were tested depending on the injected sweet compound. […] All of the concentration-receptor combinations were measured in triplicate, and each experiment was repeated at least 3 times. The Ca^2+ change was expressed as a fractional change in fluorescent light intensity: ΔF/F = (F − F0)/F0, where F was the fluorescent light intensity at each point, and F0 was the value of fluorescent light emitted prior to stimulus application. To calculate dose–response relationships, the changes in fluorescence upon stimulus application were averaged, mock-subtracted and baseline-corrected. The resulting obtained dose–response data were adjusted by using a 4-parameter logistic equation. The half-maximal effective concentration (EC50) was calculated by using SigmaPlot software (Systat Software, San Jose, CA, USA) as described in supplemental Supplementary Figs. S1, S2, and S3.

[3] = biological target: T3, TAS2R20 (Homo sapiens, UniProt P59543); assay: Calcium mobilization assay, HEK293T-Gα16gust44 cells expressing TAS2R20; settings: maximal concentration tested: sucralose 100 mM, neotame 30 µM, Ace-K 300 mM, RebA 4 mM, RebM 4 mM, mogroside V 5 mM, erythritol 200 mM, D-allulose 500 mM, thaumatin 100 mM
T3 sequence (P59543 1-309): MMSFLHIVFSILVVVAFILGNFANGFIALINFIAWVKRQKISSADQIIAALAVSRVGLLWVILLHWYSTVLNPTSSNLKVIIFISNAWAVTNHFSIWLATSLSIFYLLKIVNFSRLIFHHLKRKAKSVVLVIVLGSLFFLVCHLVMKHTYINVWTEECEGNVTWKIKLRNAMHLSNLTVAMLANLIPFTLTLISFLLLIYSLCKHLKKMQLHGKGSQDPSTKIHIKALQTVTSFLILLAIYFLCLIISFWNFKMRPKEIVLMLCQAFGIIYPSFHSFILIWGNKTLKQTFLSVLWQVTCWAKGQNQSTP
Procedure: as §1

[4] = biological target: T4, TAS1R2/TAS1R3 (Homo sapiens, UniProt Q7RTX0+Q8TE23); assay: Calcium mobilization assay, HEK293T-Gα16gust44 cells expressing the sweet taste receptor
T4 sequence (Q8TE23 20-839): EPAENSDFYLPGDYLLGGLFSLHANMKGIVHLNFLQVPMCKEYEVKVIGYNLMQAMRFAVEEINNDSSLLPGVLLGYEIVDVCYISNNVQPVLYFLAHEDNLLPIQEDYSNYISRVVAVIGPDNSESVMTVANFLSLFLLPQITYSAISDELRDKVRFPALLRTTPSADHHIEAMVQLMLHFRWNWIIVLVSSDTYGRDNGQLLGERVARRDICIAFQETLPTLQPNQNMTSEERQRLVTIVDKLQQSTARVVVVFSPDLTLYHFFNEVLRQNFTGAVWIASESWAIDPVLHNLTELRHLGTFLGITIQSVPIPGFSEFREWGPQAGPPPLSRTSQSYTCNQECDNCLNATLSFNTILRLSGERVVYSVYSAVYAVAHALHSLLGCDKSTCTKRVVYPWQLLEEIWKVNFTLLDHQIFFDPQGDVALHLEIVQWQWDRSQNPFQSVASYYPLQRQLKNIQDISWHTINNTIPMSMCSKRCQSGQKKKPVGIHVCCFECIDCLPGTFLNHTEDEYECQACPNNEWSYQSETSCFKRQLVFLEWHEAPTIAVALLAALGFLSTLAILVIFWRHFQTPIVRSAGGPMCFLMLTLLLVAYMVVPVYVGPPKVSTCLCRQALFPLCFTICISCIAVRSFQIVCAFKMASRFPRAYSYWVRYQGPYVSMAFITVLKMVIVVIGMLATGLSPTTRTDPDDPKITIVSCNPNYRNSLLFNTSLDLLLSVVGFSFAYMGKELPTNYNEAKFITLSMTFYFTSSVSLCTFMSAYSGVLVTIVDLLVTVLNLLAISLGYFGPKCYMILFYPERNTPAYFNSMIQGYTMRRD
T4 sequence (Q7RTX0 21-852): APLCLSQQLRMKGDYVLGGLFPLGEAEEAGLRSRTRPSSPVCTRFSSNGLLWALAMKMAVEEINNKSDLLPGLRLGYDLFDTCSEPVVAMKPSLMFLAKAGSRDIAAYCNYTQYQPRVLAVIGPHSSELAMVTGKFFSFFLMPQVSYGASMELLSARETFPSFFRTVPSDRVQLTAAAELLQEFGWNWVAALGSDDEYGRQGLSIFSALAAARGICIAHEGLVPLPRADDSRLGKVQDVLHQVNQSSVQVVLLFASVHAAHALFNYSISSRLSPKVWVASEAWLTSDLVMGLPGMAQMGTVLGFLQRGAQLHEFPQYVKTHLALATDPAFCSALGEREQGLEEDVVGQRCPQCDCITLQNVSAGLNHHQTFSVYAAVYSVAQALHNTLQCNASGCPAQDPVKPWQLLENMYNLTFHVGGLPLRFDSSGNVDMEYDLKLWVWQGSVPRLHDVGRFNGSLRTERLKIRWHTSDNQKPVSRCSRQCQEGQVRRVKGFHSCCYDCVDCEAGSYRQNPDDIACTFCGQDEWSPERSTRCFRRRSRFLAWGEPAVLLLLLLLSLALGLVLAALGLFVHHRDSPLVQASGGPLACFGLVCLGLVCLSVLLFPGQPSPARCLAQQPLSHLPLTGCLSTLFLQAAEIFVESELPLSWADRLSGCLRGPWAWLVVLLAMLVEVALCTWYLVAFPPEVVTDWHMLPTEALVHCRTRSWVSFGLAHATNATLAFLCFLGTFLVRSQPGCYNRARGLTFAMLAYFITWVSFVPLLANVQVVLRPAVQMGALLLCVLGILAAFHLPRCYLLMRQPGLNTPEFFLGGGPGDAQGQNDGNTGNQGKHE
Procedure: as §1

[5] = maximal signal amplitude, sweet compound alone
[6] = mogroside V in the presence of thaumatin 0 µM
[7] = read-out: EC50 value, sweet compound alone
[8] = neotame in the presence of D-allulose 0 mM
[9] = RebM in the presence of mogroside V 0 µM

| Compound | Response of TAS2R14 [1] | Response of TAS2R41 [2] | Response of TAS2R20 [3] | Max ΔF/F0 [4, 5] | EC50 [4, 7] [µM] | other results |
| --- | --- | --- | --- | --- | --- | --- |
| C[C@H](CC[C@@H](O[C@@H]1O[C@H](CO[C@@H]2O[C@H](CO)[C@@H](O)[C@H](O)[C@H]2O)[C@@H](O)[C@H](O)[C@H]1O[C@@H]1O[C@H](CO)[C@@H](O)[C@H](O)[C@H]1O)C(C)(C)O)[C@H]1CC[C@@]2(C)[C@@H]3CC=C4[C@@H](CC[C@H](O[C@@H]5O[C@H](CO[C@@H]6O[C@H](CO)[C@@H](O)[C@H](O)[C@H]6O)[C@@H](O)[C@H](O)[C@H]5O)C4(C)C)[C@]3(C)[C@H](O)C[C@]12C [Mogroside V, mogroside V] | − | − | − | 0.14 ± 0.01 | 23 ± 2 | concentration of saturation of the sweet taste receptor [4]: ~500 µM; decrease in the EC50 values ([4]; in the presence of thaumatin 0.3 to 10 µM): 3 fold; decrease in the EC50 value ([4]; mogroside V in the presence of 10 µM thaumatin): 4 fold; EC50 [4, 6]: 29 ± 4 µM; Max ΔF/F0 [4, 6]: 0.14 ± 0.01; Max ΔF/F0 ([4]; mogroside V in the presence of thaumatin 0.03 µM): 0.19 ± 0.01; Max ΔF/F0 ([4]; mogroside V in the presence of thaumatin 1 µM): 0.18 ± 0.04; Max ΔF/F0 ([4]; mogroside V in the presence of thaumatin 3 µM): 0.18 ± 0.01; Max ΔF/F0 ([4]; mogroside V in the presence of thaumatin 10 µM): 0.17 ± 0.01 |
| thaumatin | − | − | − | 0.12 ± 0.01 |  | activation of the sweet taste receptor by the compound alone ([4]; concentrations less than 3 µM): unable to activate the sweet taste receptor on its own |
| O=C(CO)[C@H](O)[C@H](O)[C@H](O)CO [D-allulose] | + | − | − | 0.50 ± 0.12 |  | activation of the sweet taste receptor by the compound alone ([4]; 3 to 30 mM): did not activate the sweet taste receptor |
| CC1=CC(=O)NS(=O)(=O)O1 [Ace-K, acesulfame-K] | − | − | − |  |  | EC50 [4]: 410 ± 94 µM |
| OC[C@@H](O)[C@@H](O)CO [Erythritol, erythritol] | − | − | − | 0.06 ± 0.01 |  | EC50 [4]: 56000 ± 10000 µM |
| OC[C@H]1O[C@H](O[C@]2(CCl)O[C@H](CCl)[C@@H](O)[C@@H]2O)[C@H](O)[C@@H](O)[C@H]1Cl [Sucralose, sucralose] | − | − | − | 0.13 ± 0.01 | 78 ± 11 | concentration at which maximal signal amplitude is reached [4]: below 1 mM; Max ΔF/F0 ([4]; sucralose in the presence of Ace-K 0 µM): 0.13 ± 0.01; Max ΔF/F0 ([4]; sucralose in the presence of Ace-K 10 µM): 0.15 ± 0.01; Max ΔF/F0 ([4]; sucralose in the presence of Ace-K 30 µM): 0.12 ± 0.01; Max ΔF/F0 ([4]; sucralose in the presence of Ace-K 100 µM): 0.14 ± 0.01 |
| COC(=O)[C@H](Cc1ccccc1)NC(=O)[C@H](CC(=O)O)NCCC(C)(C)C [Neotame] | − | − | − | 0.16 ± 0.01 | 2.26 ± 0.23 | EC50 [4, 8]: 2.37 ± 0.34 µM; Max ΔF/F0 [4, 8]: 0.16 ± 0.01; Max ΔF/F0 ([4]; neotame in the presence of D-allulose 3 mM): 0.17 ± 0.01; Max ΔF/F0 ([4]; neotame in the presence of D-allulose 10 mM): 0.21 ± 0.01; Max ΔF/F0 ([4]; neotame in the presence of D-allulose 30 mM): 0.17 ± 0.00; increase in sweetness potency ([4]; neotame with addition of D-allulose (3 to 30 mM), leftward shift of dose–response curves): approximately 2.5 fold |
| C=C1C[C@@]23CC[C@H]4[C@@](C)(CCC[C@@]4(C)C(=O)O[C@@H]4O[C@H](CO)[C@@H](O)[C@H](O[C@@H]5O[C@H](CO)[C@@H](O)[C@H](O)[C@H]5O)[C@H]4O[C@@H]4O[C@H](CO)[C@@H](O)[C@H](O)[C@H]4O)[C@@H]2CC[C@]1(O[C@@H]1O[C@H](CO)[C@@H](O)[C@H](O[C@@H]2O[C@H](CO)[C@@H](O)[C@H](O)[C@H]2O)[C@H]1O[C@@H]1O[C@H](CO)[C@@H](O)[C@H](O)[C@H]1O)C3 [RebM, Rebaudioside M] | − | − | − | 0.16 ± 0.01 | 34 ± 2 | EC50 [4, 9]: 36 ± 2 µM; Max ΔF/F0 [4, 9]: 0.17 ± 0.01; Max ΔF/F0 ([4]; RebM in the presence of mogroside V 0.03 µM): 0.16 ± 0.01; Max ΔF/F0 ([4]; RebM in the presence of mogroside V 1 µM): 0.18 ± 0.01; Max ΔF/F0 ([4]; RebM in the presence of mogroside V 3 µM): 0.17 ± 0.01; Max ΔF/F0 ([4]; RebM in the presence of mogroside V 5 µM): 0.12 ± 0.01; Max ΔF/F0 ([4]; RebM in the presence of mogroside V 10 µM): 0.12 ± 0.01 |
